US9428466B2, “Methods for reducing uric acid levels using barbiturate derivatives” (priority 2013, dated 2016)
Where two headings read alike, the source gives them in different places.

How the values were obtained:
URAT1 (SLC22A12) = URAT1 (SLC22A12) (Homo sapiens (Human), UniProt Q96S37); assay: URAT1 cellular uptake assay (3H-orotate transport, stably transfected URAT-1/CHO cells); assay type: cell-based; conditions: 3H-orotate uptake, 7 concentrations 0.01 to 150 μM, read-out: URAT1 IC50 (μM ± SEM)
Sequence of URAT1 (SLC22A12) (Q96S37 whole entry): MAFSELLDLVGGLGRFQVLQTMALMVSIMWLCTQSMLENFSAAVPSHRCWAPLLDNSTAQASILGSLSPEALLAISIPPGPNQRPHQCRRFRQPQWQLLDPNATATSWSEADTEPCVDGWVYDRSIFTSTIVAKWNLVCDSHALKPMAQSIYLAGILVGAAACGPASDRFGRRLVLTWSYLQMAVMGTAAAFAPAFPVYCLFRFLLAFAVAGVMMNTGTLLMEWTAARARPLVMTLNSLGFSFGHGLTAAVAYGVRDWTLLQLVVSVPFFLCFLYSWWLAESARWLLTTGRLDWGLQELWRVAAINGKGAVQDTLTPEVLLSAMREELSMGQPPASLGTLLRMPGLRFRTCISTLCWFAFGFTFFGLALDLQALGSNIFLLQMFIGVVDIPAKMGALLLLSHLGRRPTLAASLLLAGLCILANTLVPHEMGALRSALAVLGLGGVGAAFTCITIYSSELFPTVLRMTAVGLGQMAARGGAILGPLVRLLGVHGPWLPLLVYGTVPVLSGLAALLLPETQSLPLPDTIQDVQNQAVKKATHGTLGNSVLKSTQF
Method: URAT1 (SLC22A12) activity was evaluated in a cellular uptake assay using a 96-well plate with stably transfected URAT-1/CHO cells. ^3H-orotate was used as the test transport agent, which was measured in a liquid scintillation counter, using benzbromarone as a positive control, and DMSO and non-transfected CHO cells as negative controls (Solvo Biotechnology, Boston, Mass.).

xanthine oxidase [1] = biological target: T1, xanthine oxidase (Homo sapiens (Human), UniProt P47989); assay: Fluorescence-based xanthine oxidase activity assay; assay type: biochemical; conditions: triplicate, 10 concentrations
T1 sequence (P47989 whole entry, species assumed): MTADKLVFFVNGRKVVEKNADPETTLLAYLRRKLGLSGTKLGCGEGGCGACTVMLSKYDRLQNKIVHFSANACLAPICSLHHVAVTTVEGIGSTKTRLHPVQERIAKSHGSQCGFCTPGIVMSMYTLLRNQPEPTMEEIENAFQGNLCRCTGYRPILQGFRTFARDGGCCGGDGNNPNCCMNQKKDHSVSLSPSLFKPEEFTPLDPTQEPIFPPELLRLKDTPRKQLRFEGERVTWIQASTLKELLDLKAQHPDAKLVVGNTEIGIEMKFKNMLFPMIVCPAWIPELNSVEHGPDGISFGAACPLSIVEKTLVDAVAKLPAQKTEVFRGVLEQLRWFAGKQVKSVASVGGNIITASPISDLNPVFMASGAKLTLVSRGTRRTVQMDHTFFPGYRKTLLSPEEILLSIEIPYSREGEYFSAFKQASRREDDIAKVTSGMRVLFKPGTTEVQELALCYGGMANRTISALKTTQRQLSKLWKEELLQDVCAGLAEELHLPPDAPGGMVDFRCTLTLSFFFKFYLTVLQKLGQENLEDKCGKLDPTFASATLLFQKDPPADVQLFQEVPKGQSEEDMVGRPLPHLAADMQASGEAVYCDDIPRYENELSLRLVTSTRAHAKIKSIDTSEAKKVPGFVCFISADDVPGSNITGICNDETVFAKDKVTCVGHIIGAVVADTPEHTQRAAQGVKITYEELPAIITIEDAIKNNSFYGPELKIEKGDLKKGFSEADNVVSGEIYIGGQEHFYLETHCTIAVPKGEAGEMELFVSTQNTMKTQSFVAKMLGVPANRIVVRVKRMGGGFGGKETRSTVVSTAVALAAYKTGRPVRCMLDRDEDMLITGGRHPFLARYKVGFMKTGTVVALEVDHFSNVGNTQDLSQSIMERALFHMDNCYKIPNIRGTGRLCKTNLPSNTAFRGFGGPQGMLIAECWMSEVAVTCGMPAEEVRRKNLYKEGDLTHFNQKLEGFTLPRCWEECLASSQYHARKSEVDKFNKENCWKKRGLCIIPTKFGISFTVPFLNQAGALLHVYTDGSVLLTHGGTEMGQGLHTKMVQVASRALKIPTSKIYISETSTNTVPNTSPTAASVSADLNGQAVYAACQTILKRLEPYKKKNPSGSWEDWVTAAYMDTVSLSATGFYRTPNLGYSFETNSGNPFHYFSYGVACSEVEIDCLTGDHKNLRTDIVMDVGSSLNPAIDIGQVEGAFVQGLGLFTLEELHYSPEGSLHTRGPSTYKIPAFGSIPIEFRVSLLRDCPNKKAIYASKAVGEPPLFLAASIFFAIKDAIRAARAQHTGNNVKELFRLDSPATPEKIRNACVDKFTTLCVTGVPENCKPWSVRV
Method: Xanthine oxidase inhibition was determined using a standard fluorescence-based assay for xanthine oxidase activity (McHale A, Grimes H, Coughlan M P: Int J Biochem. 10:317-9, 1979) with minor variations. […] Experiments on test compounds were performed in triplicate in multi-well plates using 10 concentrations of each compound that ranged over a 3-fold dilution.

CHO-K1 cells = assay: In vitro mouse micronucleus assay (a test for cytotoxicity); assay type: cell-based; conditions: 24 hr without S9 and 4 hr with S9, 62 μM-1000 μM
Method: The in vitro mouse micronucleus assay was conducted in CHO-K1 cells seeded in 96-well plates and treated with test compounds for 24 hr (without S9) and for 4 hr (with S9). Cytochalasin B was added after 24 hr, and the cells were incubated for an additional 24 hr, after which the cells were fixed and scored for micronuclei. The assay was run using 6 concentrations in duplicate (62 μM-1000 μM), and data for the highest 5 concentrations that were not cytotoxic were reported. Cellular nuclei and micronuclei were stained, and an automated fluorescent microscopic detection system was used to score micronuclei in approximately 2,000 bi-nucleated cells per concentration.

xanthine oxidase [2] = biological target: T1, xanthine oxidase; conditions: data taken from publications; cited from earlier work

Structure (SMILES)	IC50 (URAT1 (SLC22A12)) [µM]	IC50 (xanthine oxidase [1]) [µM]	Mouse Micronucleus (CHO-K1 cells)	IC50 (xanthine oxidase [2]) [µM]
O=C(Nc1ccccc1)c1c(O)[nH]c(=O)[nH]c1=O [2-oxo-desthiomerbarone, 1,2,3,4-tetrahydro-6-hydroxy-2,4-dioxo-N-phenyl-5-pyrimidinecarboxamide]	1.2	> 300	Positive	–
O=C(Nc1ccc(O)cc1)c1c(O)[nH]c(=O)[nH]c1=O [4′-hydroxy-2-oxo-desthiomerbarone, 1,2,3,4-tetrahydro-6-hydroxy-2,4-dioxo-N-(4′-hydroxyphenyl)-5-pyrimidinecarboxamide]	2.6 ± 0.6	1.06	Negative	–
O=C(Nc1ccc(O)cc1)c1c(O)[nH]c(=S)[nH]c1=O [4′-hydroxymerbarone, 1,2,3,4-tetrahydro-6-hydroxy-2-thioxo-4-oxo-N-(4′-hydroxyphenyl)-5-pyrimidinecarboxamide]	9.4 ± 0.6	0.68	Negative	–
O=C(O)CSc1nnc(Br)n1-c1ccc(C2CC2)c2ccccc12 [Lesinurad, lesinurad]	–	–	–	> 300
O=C1NC(=S)NC(=O)C1C(=O)Nc1ccccc1 [Merbarone, 5-(N-phenylcarboxamido)-2-thio-barbituric acid, reference compound]	5.4 ± 1	274	Positive	–
